Where “and” joins values, the source holds several entries; their conditions need not be identical. Equal values may be shown once.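 Dose response: 5 concentrations. Exposure: 48 h. Format: 96-well plates. Endpoint: linear interpolation; highest concentration if not reached. Abbreviation: GI50, concentration required for 50% inhibition of growth. Definition used: TGI = concentration required for complete inhibition of growth.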
Assays:
Test in all cases: DTP human tumour cell line panel, 48 h
SF-268 CNS = tested on: SF-268 CNS
ACHN renal = tested on: ACHN renal
HCT-116 colon = tested on: HCT-116 colon
786-0 renal = tested on: 786-0 renal
SNB-75 CNS = tested on: SNB-75 CNS
SK-MEL-2 melanoma = tested on: SK-MEL-2 melanoma
K-562 leukemia = tested on: K-562 leukemia
SK-MEL-5 melanoma = tested on: SK-MEL-5 melanoma
MCF7 breast = tested on: MCF7 breast
HCC-2998 colon = tested on: HCC-2998 colon
SF-539 CNS = tested on: SF-539 CNS
MOLT-4 leukemia = tested on: MOLT-4 leukemia
KM12 colon = tested on: KM12 colon
HS 578T breast = tested on: HS 578T breast
NCI-H226 lung = tested on: NCI-H226 lung
BT-549 breast = tested on: BT-549 breast
CAKI-1 renal = tested on: CAKI-1 renal
HL-60(TB) leukemia = tested on: HL-60(TB) leukemia
OVCAR-5 ovarian = tested on: OVCAR-5 ovarian
NCI-H23 lung = tested on: NCI-H23 lung
OVCAR-3 ovarian = tested on: OVCAR-3 ovarian
RXF 393 renal = tested on: RXF 393 renal
SNB-19 CNS = tested on: SNB-19 CNS
COLO 205 colon = tested on: COLO 205 colon
SK-MEL-28 melanoma = tested on: SK-MEL-28 melanoma
HOP-62 NSCLC = tested on: HOP-62 NSCLC
U251 CNS = tested on: U251 CNS
MDA-MB-231 breast = tested on: MDA-MB-231 breast
LOX IMVI melanoma = tested on: LOX IMVI melanoma
DU-145 prostate = tested on: DU-145 prostate
NCI-H522 lung = tested on: NCI-H522 lung
PC-3 prostate = tested on: PC-3 prostate
OVCAR-8 ovarian = tested on: OVCAR-8 ovarian
RPMI-8226 leukemia = tested on: RPMI-8226 leukemia
A498 renal = tested on: A498 renal
CCRF-CEM leukemia = tested on: CCRF-CEM leukemia
NCI/ADR-RES ovarian = tested on: NCI/ADR-RES ovarian
TK-10 renal = tested on: TK-10 renal
HOP-92 NSCLC = tested on: HOP-92 NSCLC
UACC-62 melanoma = tested on: UACC-62 melanoma
NCI-H460 lung = tested on: NCI-H460 lung
MDA-N = tested on: MDA-N
UO-31 renal = tested on: UO-31 renal
HT29 colon = tested on: HT29 colon
EKVX NSCLC = tested on: EKVX NSCLC
T-47D breast = tested on: T-47D breast
UACC-257 melanoma = tested on: UACC-257 melanoma
MDA-MB-435 = tested on: MDA-MB-435
OVCAR-4 ovarian = tested on: OVCAR-4 ovarian
SW-620 colon = tested on: SW-620 colon
M14 melanoma = tested on: M14 melanoma
MALME-3M melanoma = tested on: MALME-3M melanoma
SF-295 CNS = tested on: SF-295 CNS
SR leukemia = tested on: SR leukemia
HCT-15 colon = tested on: HCT-15 colon

COc1cc2cc(C(=O)N3C[C@H](CCl)c4c3cc(O)c3ccccc43)[nH]c2c(OC)c1OC
GI50 (SF-268 CNS): 16.9 nM
TGI (SF-268 CNS): 563 nM and 4990 nM
TGI (ACHN renal): 581 nM
GI50 (HCT-116 colon): 16.5 nM
TGI (HCT-116 colon): 59000 nM
GI50 (786-0 renal): 17.4 nM
TGI (786-0 renal): 493 nM and 51.9 nM
TGI (SNB-75 CNS): 449 nM
TGI (SK-MEL-2 melanoma): 461 nM
GI50 (K-562 leukemia): 46 nM
TGI (SK-MEL-5 melanoma): 43.9 nM
GI50 (MCF7 breast): < 10 nM
TGI (MCF7 breast): 10200 nM
GI50 (HCC-2998 colon): 28.6 nM
TGI (HCC-2998 colon): 654 nM and 1130 nM
TGI (SF-539 CNS): 192 nM
GI50 (MOLT-4 leukemia): < 10 nM
TGI (MOLT-4 leukemia): 6220 nM
GI50 (KM12 colon): 42.5 nM
TGI (KM12 colon): 677 nM and 1370 nM
TGI (HS 578T breast): 652 nM
GI50 (NCI-H226 lung): 1790 nM
TGI (NCI-H226 lung): 504 nM and 3380 nM
GI50 (BT-549 breast): 31.2 nM
TGI (BT-549 breast): 1560 nM and 460 nM
GI50 (CAKI-1 renal): < 10 nM
TGI (HL-60(TB) leukemia): 10.5 nM
GI50 (OVCAR-5 ovarian): 23.7 nM
TGI (OVCAR-5 ovarian): 2150 nM and 13700 nM
GI50 (NCI-H23 lung): < 10 nM
TGI (NCI-H23 lung): 234 nM and 92.7 nM
GI50 (OVCAR-3 ovarian): 47.4 nM
TGI (OVCAR-3 ovarian): 14400 nM
TGI (RXF 393 renal): 194 nM
GI50 (SNB-19 CNS): 39.1 nM
TGI (SNB-19 CNS): 1420 nM and 1670 nM
GI50 (COLO 205 colon): 118 nM
TGI (COLO 205 colon): 1800 nM and 483 nM
TGI (SK-MEL-28 melanoma): 1990 nM
GI50 (HOP-62 NSCLC): 15.7 nM
TGI (HOP-62 NSCLC): 198 nM and 1060 nM
GI50 (U251 CNS): 19 nM
TGI (U251 CNS): 3230 nM and 3060 nM
TGI (MDA-MB-231 breast): 3940 nM
GI50 (LOX IMVI melanoma): 20.1 nM
TGI (LOX IMVI melanoma): 1830 nM and 12300 nM
GI50 (DU-145 prostate): < 10 nM
TGI (DU-145 prostate): 1530 nM and 213 nM
GI50 (NCI-H522 lung): 10.4 nM
GI50 (PC-3 prostate): 35.5 nM
TGI (PC-3 prostate): 2270 nM and 18900 nM
GI50 (OVCAR-8 ovarian): 1670 nM
TGI (OVCAR-8 ovarian): 1130 nM and 3530 nM
GI50 (RPMI-8226 leukemia): < 10 nM
TGI (A498 renal): 684 nM
GI50 (CCRF-CEM leukemia): < 10 nM
TGI (CCRF-CEM leukemia): 48 nM
GI50 (NCI/ADR-RES ovarian): 1340 nM
TGI (NCI/ADR-RES ovarian): 563 nM and 4620 nM
GI50 (TK-10 renal): 57.1 nM
TGI (TK-10 renal): > 100000 nM
TGI (HOP-92 NSCLC): 2650 nM
GI50 (UACC-62 melanoma): 35.1 nM
GI50 (NCI-H460 lung): < 10 nM
TGI (NCI-H460 lung): 4340 nM and 23500 nM
TGI (MDA-N): 2130 nM
TGI (UO-31 renal): 543 nM
GI50 (HT29 colon): 2640 nM
TGI (HT29 colon): 6820 nM
GI50 (EKVX NSCLC): 139 nM
TGI (EKVX NSCLC): 953 nM and 641 nM
GI50 (T-47D breast): 25.6 nM
TGI (T-47D breast): 362 nM
GI50 (UACC-257 melanoma): 135 nM and 45.9 nM
GI50 (MDA-MB-435): 20.1 nM
TGI (MDA-MB-435): 634 nM and 91.2 nM
GI50 (OVCAR-4 ovarian): 61.2 nM
TGI (OVCAR-4 ovarian): 2760 nM and 14600 nM
GI50 (SW-620 colon): < 10 nM
GI50 (M14 melanoma): 26.8 nM
GI50 (MALME-3M melanoma): 25.9 nM
TGI (MALME-3M melanoma): 442 nM and 82.7 nM
TGI (SF-295 CNS): 1230 nM
TGI (SR leukemia): 67.2 nM
GI50 (HCT-15 colon): 22 nM
